# Laboratory results taken from paper PMC9387934, “Randomized single oral dose phase 1 study of safety, tolerability, and pharmacokinetics of Iminosugar UV-4 Hydrochloride (UV-4B) in healthy subjects” (PLoS Neglected Tropical Diseases, 2022).
# Structures can show the parent of a compound that is named as a salt.
# Columns and labels:
# [1] = 14-day GLP toxicology study in dogs (UV4-COV-0035); format: in vivo, dog
# Protocol: Fourteen-day studies were conducted in mice and dogs. In dogs at 2 mg/kg/dose TID (6 mg/kg/day), there were mild decreases in platelets (PLT), increases in aspartate aminotransferase (AST) (up to 2.8 x baseline [BL]); and a decrease in thymus weight with lymphocyte depletion. Therefore, this dose exceeded the NOEL. At the no observed adverse event level (NOAEL) of 10 mg/kg/dose TID (30 mg/kg/day), there was an increase in the occurrence of poorly formed and liquid feces; decrease in PLT count and increase in activated partial thromboplastin time (aPTT) (2.2 x BL); increase in AST (up to 9.7 x BL) and alanine aminotransferase (ALT) (up to 2.9 x BL) with an inverted AST/ALT ratio; and a decrease in […]
# lymphocyte depletion (no cellular debris was noted, however). The inverted AST/ALT ratio and lymphocyte depletion were reversible. Thymus weight decrease in females was reversible but thymus weight decreases in males were not. However, because the apparent […]
# microscopic thymus findings, thymus weight differences at the recovery necropsy were considered not toxicologically important. […]
# ng•h/mL, respectively. Daily exposure at NOAEL [calculated as 3 x AUC(0-8)] is estimated at 163,305 ng•h/mL. […]
# Daily exposure [calculated as 3 x AUC(0-8)] is estimated at 32,820 ng•h/mL. […]
# [2] = Reproductive toxicity upper limit study in rats, 12 days; format: in vivo, rat; settings: 50 mg/kg/day
# Protocol: 7. Reproductive toxicity:
# UV-4B has been evaluated for developmental and reproductive toxicity in fertility and early embryonic development in rats, embryo-fetal development in rats and rabbits, and pre- and postnatal development in rats. In male and female rats given UV-4B at 8, 20, and 50 mg/kg/day before mating and continuing through Gestation Day 13, a […]
# observed at 50 mg/kg/day. […]
# count but following a 21-week treatment-free period there was complete recovery in pregnancy and fertility indices However, decrease in testicular weight, sperm motility […]
# identify the upper limit of reproductive toxicity, a dose of 50 mg/kg/day for 12 […]
# In a study designed to identify the upper limit of reproductive toxicity, a dose of 50 […]
# rabbit offspring. The rat and rabbit doses are equivalent to 486 and 966 mg/day, […]
# In summary, findings that have been identified in the UV-4B toxicology studies so far include effects on the GI tract (including ulcers/erosions), lymphocytes and lymphoid tissue, reduction in PLT count, and increases in transaminases (AST>ALT). Findings were generally consistent across mouse, dog, and rat, apart from the isolated finding of swollen paws/legs and perioral appearance and red skin which was seen only in the rat. […]
# [3] = set-up: method as in Investigator’s Brochure (IB); settings: in vitro; ref Investigator’s Brochure (IB); cited from earlier work
# [4] = rat, cited from earlier work
smiles,measurement,setting,value
"COCCCCCCCCCN1C[C@H](O)[C@@H](O)[C@H](O)[C@H]1CO [UV-4B, N-(9’-methoxynonyl)-1-deoxynojirimycin hydrochloride]",AUC(0-t),"[1]; both sexes, dog, in vivo, 30 mg/kg/day, dogs, at NOAEL 30 mg/kg/day, read-out: Daily exposure [3 x AUC(0-8)]",32800 ng·h/mL
same,HED of the lowest dose tested in dogs,[1]; from 2 mg/kg TID,67 mg TID
same,Human equivalent of the rat dose,[2],486 mg/day
same,"Mutagenicity, mouse lymphoma assay",[3],not found to be mutagenic or clastogenic
same,Dose with increased WBC and lymphocyte count,[4]; printed men,"≥ 10 mg/kg/dose, TID"
same,"Dose with swollen paws/legs and perioral appearance and red skin, paws, and/or feet",[4]; women [sic],"< 60 mg/kg/dose, TID"
same,Cardiovascular Effects,[4],none observed
same,Dose with decreased PLT and reticulocyte count,[4],"≥ 10 mg/kg/dose, TID"
same,"Dose with erosion/ulcer, inflammation, decreased mucus in stomach, hyperplasia/hyperkeratosis",[4],"≥ 25 mg/kg/dose, TID"
same,Dose with extramedullary hematopoiesis decreased in spleen and liver,[4],"60 mg/kg/dose, TID"
same,Dose with increased AST and ALT,[4],"≥ 10 mg/kg/dose, TID"
